US4820695A, “C-20-dihydro-deoxy-(cyclic amino)-derivatives of macrolide antibiotics” (priority 1987, dated 1989)
In brackets after ≈: the same amount, converted by molar mass. Read-outs that look alike come from different tables or passages of the source.

Columns and labels:
Staphyloccus aureus X1.1 = experiment: MIC, standard agar-dilution assay (Table IX); type: cell-based, Staphylococcus aureus
[1] = system: Staphylococcus aureus V41; experiment: MIC, standard agar-dilution assay (Table IX); type: cell-based; conditions: Staphylococcus aureus V41, Penicillin-resistant strain
[2] = system: Staphylococcus aureus X400; experiment: MIC, standard agar-dilution assay (Table IX); type: cell-based; conditions: Staphylococcus aureus X400, Methicillin-resistant strain
[3] = system: Staphylococcus aureus S13E; experiment: MIC, standard agar-dilution assay (Table IX); type: cell-based
[4] = system: Staphylococcus epidermidis EPI1; experiment: MIC, standard agar-dilution assay (Table IX); type: cell-based; conditions: Staphylococcus epidermidis EPI1, agar-dilution
[5] = system: Staphylococcus epidermidis 222; experiment: MIC, standard agar-dilution assay (Table IX); type: cell-based
[6] = system: Streptococcus pyogenes C203; experiment: MIC, standard agar-dilution assay (Table IX); type: cell-based
[7] = system: Streptococcus pneumoniae Park I; experiment: MIC, standard agar-dilution assay (Table IX); type: cell-based; conditions: Streptococcus pneumoniae Park I, agar-dilution
[8] = system: Streptococcus Group D X66; experiment: MIC, standard agar-dilution assay (Table IX); type: cell-based
[9] = system: Streptococcus Group D 2041; experiment: MIC, standard agar-dilution assay (Table IX); type: cell-based
[10] = system: Haemophilus influenzae C.L.; experiment: MIC, standard agar-dilution assay (Table IX); type: cell-based; conditions: Ampicillin-sensitive strain
[11] = system: Haemophilus influenzae 76; experiment: MIC, standard agar-dilution assay (Table IX); type: cell-based; conditions: Haemophilus influenzae 76, Ampicillin-resistant strain
Escherichia coli N10 = experiment: MIC, standard agar-dilution assay (Table IX); type: cell-based
Escherichia coli EC14 = experiment: MIC, standard agar-dilution assay (Table IX); type: cell-based
Escherichia coli TEM = experiment: MIC, standard agar-dilution assay (Table IX); type: cell-based
Klebsiella X26 = experiment: MIC, standard agar-dilution assay (Table IX); type: cell-based
[12] = system: Mycoplasma gallisepticum 29C; experiment: MIC, broth-dilution microtiter test (Table X); type: cell-based
Description: (§1) The MIC's in Table X were obtained using conventional broth-dilution microtiter tests.

[13] = system: Mycoplasma hyopneumoniae S5972; experiment: MIC, broth-dilution microtiter test (Table X); type: cell-based
Description: as §1

Mycoplasma hyorhinis 29E = experiment: MIC, broth-dilution microtiter test (Table X); type: cell-based
Description: as §1

Mycoplasma synoviae 40A = experiment: MIC, broth-dilution microtiter test (Table X); type: cell-based
Description: as §1

[14] = system: Pasteurella hemolytica 22C; experiment: MIC, broth-dilution microtiter test (Table X); type: cell-based
Description: as §1

[15] = system: Pasteurella multocida 17E; experiment: MIC, broth-dilution microtiter test (Table X); type: cell-based; conditions: Bovine isolate
Description: as §1

[16] = system: Pasteurella multocida 60A; experiment: MIC, broth-dilution microtiter test (Table X); type: cell-based; conditions: Avian isolate
Description: as §1

Staphylococcus aureus = experiment: MIC, broth-dilution microtiter test (Table X); type: cell-based
Description: as §1

Streptococcus sp. 19F = experiment: MIC, broth-dilution microtiter test (Table X); type: cell-based
Description: as §1

Pasteurella multocida [17] = experiment: Pasteurella infection in one-day-old chicks, subcutaneous administration (Table XII); type: in vivo; conditions: Administered subcutaneously, 30 mg/kg × 2, 1 and 4 hours post-challenge
Protocol: (§2) Many of the C-20 modified derivatives of this invention have also shown in vivo antibacterial activity against infections induced by gram-negative bacteria. Tables XII and XIII summarize the results of tests in which illustrative compounds were evaluated against a Pasteurella infection in one-day-old chicks. The compounds were administered parenterally or orally after challenge of the chicks with Pasteurella multocida (0.1 ml of a 10^-4 dilution of a twenty-hour tryptose broth culture of an avian P. multocida given subcutaneously). In these tests, unless indicated otherwise, all non-medicated infected chicks died within 24 hours of Pasteurella challenge. In the tests summarized in Table XII, the compounds were administered by subcutaneous injection at a dosage of 30 mg/kg, 1 and 4 hours post-challenge of the chicks with P. multocida. In the tests summarized in Table XIII the compounds were administered in medicated drinking water (at a level of 2 g/gal) available from 4 to 20 hours prior to challenge of the chicks with P. multocida and during the 3 -day test period.
^a Administered subcutaneously; 30 mg/kg × 2

Pasteurella multocida [18] = experiment: Pasteurella infection in one-day-old chicks, medicated drinking water (Table XIII); type: in vivo; conditions: Administered in the available drinking water at 2 g/gal
Protocol: as §2
^a Administered in the available drinking water at a concentration of […]

[19] = Titratable groups in 66% aqueous DMF (Tables XIV-XVI); type: physicochemical
Description: ^c Run in 66% aqueous DMF
^d Run in 66% aqueous DMF

[20] = system: Streptococcus pyogenes C203; experiment: ED50 in mice experimentally infected with S. pyogenes C203 (Table XI); type: in vivo; conditions: Streptococcus pyogenes, doses given 1 and 4 hours postinfection, read-out: ED50
Procedure, shortened: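 Mice infected with S. pyogenes C203 received two doses of compound, 1 and 4 h post-infection. ED50 is the dose in mg/kg (per dose, ×2) protecting 50% of animals.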

[21] = Staphylococcus aureus, read-out: MIC
[22] = Mycoplasmoides gallisepticum, read-out: MIC
[23] = Mesomycoplasma hyopneumoniae, read-out: MIC
[24] = Mycoplasmopsis synoviae, read-out: MIC

CCC1OC(=O)CC(O)C(C)C(OC2OC(C)C(O)C(N(C)C)C2O)C(CCN2C3CCCCC3C3CCCCC32)CC(C)C(=O)C=CC(C)=CC1COC1OC(C)C(O)C(OC)C1OC (stereo not drawn) [Compound D25, 20-DH-DO-20-(Dodecahydrocarbazol-9-yl) desmycosin]
MIC (Staphyloccus aureus X1.1; [21]): 0.5 µg/mL (≈ 0.535 µM) | MIC ([1]; read-out: MIC): 0.5 µg/mL (≈ 0.535 µM) | MIC ([2]; read-out: MIC): 1 µg/mL (≈ 1.07 µM) | MIC ([3]; Staphylococcus aureus, S13E): 0.5 µg/mL (≈ 0.535 µM) | MIC ([4]; read-out: MIC): 0.5 µg/mL (≈ 0.535 µM) | MIC ([5]; read-out: MIC): 0.25 µg/mL (≈ 0.267 µM) | MIC ([6]; read-out: MIC): 0.25 µg/mL (≈ 0.267 µM) | MIC ([7]; read-out: MIC): 0.5 µg/mL (≈ 0.535 µM) | MIC ([8]; read-out: MIC): 4 µg/mL (≈ 4.28 µM) | MIC ([9]; GROUPD2041, read-out: MIC): 4 µg/mL (≈ 4.28 µM) | MIC ([10]; read-out: MIC): 16 µg/mL (≈ 17.1 µM) | MIC ([11]; read-out: MIC): 8 µg/mL (≈ 8.55 µM) | MIC (Escherichia coli N10; read-out: MIC): 128 µg/mL (≈ 137 µM) | MIC (Escherichia coli EC14; read-out: MIC): 128 µg/mL (≈ 137 µM) | MIC (Escherichia coli TEM; read-out: MIC): 32 µg/mL (≈ 34.2 µM) | MIC (Klebsiella X26; read-out: MIC): 128 µg/mL (≈ 137 µM) | MIC [12, 22]: 0.39 µg/mL (≈ 0.417 µM) | MIC [13, 23]: 0.39 µg/mL (≈ 0.417 µM) | MIC (Mycoplasma hyorhinis 29E; read-out: MIC): 12.5 µg/mL (≈ 13.4 µM) | MIC (Mycoplasma synoviae 40A; [24]): 0.097 µg/mL (≈ 0.104 µM) | MIC ([14]; read-out: MIC): 3.12 µg/mL (≈ 3.34 µM) | MIC ([15]; read-out: MIC): 12.5 µg/mL (≈ 13.4 µM) | MIC ([16]; read-out: MIC): 12.5 µg/mL (≈ 13.4 µM) | MIC (Staphylococcus aureus; read-out: MIC): 3.12 µg/mL (≈ 3.34 µM) | MIC (Streptococcus sp. 19F; read-out: MIC): 3.12 µg/mL (≈ 3.34 µM) | Number of Deaths/Number Treated (Pasteurella multocida [17]): 0/10 | Number of Deaths/Number Treated (Pasteurella multocida [18]): 7/10 | pKa ([19]; Titratable groups): 9.95 | pKa ([19]; Titratable groups (first value)): 7.95

CCC1OC(=O)CC(O)C(C)C(OC2OC(C)C(O)C(N(C)C)C2O)C(CCN2CCC(C)CC(C)(C)C2)CC(C)C(=O)C=CC(C)=CC1COC1OC(C)C(O)C(OC)C1OC (single isomer, unassigned) [Compound D23, 20-DH-DO-20-(3,3,5-Trimethylhexahydroazepin-1-yl)desmycosin]
MIC (Staphyloccus aureus X1.1): 0.5 µg/mL (≈ 0.557 µM) | MIC [1]: 0.5 µg/mL (≈ 0.557 µM) | MIC [2]: 1 µg/mL (≈ 1.11 µM) | MIC ([3]; Staphylococcus aureus S13E, agar-dilution): 0.5 µg/mL (≈ 0.557 µM) | MIC [4]: 0.5 µg/mL (≈ 0.557 µM) | MIC [5]: 0.5 µg/mL (≈ 0.557 µM) | MIC [6]: 0.5 µg/mL (≈ 0.557 µM) | MIC [7]: 0.5 µg/mL (≈ 0.557 µM) | MIC [8]: 4 µg/mL (≈ 4.46 µM) | MIC [9]: 8 µg/mL (≈ 8.92 µM) | MIC [10]: 16 µg/mL (≈ 17.8 µM) | MIC [11]: 8 µg/mL (≈ 8.92 µM) | MIC (Escherichia coli N10): 64 µg/mL (≈ 71.3 µM) | MIC (Escherichia coli EC14): 64 µg/mL (≈ 71.3 µM) | MIC (Escherichia coli TEM): 32 µg/mL (≈ 35.7 µM) | MIC (Klebsiella X26): 128 µg/mL (≈ 143 µM) | MIC [12]: 0.097 µg/mL (≈ 0.108 µM) | MIC [13]: 0.78 µg/mL (≈ 0.869 µM) | MIC (Mycoplasma hyorhinis 29E): 6.25 µg/mL (≈ 6.97 µM) | MIC (Mycoplasma synoviae 40A): 0.097 µg/mL (≈ 0.108 µM) | MIC [14]: 3.12 µg/mL (≈ 3.48 µM) | MIC [15]: 6.25 µg/mL (≈ 6.97 µM) | MIC [16]: 12.5 µg/mL (≈ 13.9 µM) | MIC (Staphylococcus aureus): 3.12 µg/mL (≈ 3.48 µM) | MIC (Streptococcus sp. 19F): 1.56 µg/mL (≈ 1.74 µM) | Number of Deaths/Number Treated (Pasteurella multocida [17]): 8/10 | Number of Deaths/Number Treated (Pasteurella multocida [18]): 4/10 | Titratable groups [19]: 9.0 | Titratable groups (first value) [19]: 7.7

CCC1OC(=O)CC(O)C(C)C(OC2OC(C)C(O)C(N(C)C)C2O)C(CCN2CCCc3ccccc32)CC(C)C(=O)C=CC(C)=CC1COC1OC(C)C(O)C(OC)C1OC (stereo not drawn) [Compound D11, 20-DH-DO-20-(1,2,3,4-Tetrahydroquinolin-1-yl)desmycosin]
MIC (Staphyloccus aureus X1.1; [21]): 0.5 µg/mL (≈ 0.562 µM) | MIC ([1]; read-out: MIC): 0.5 µg/mL (≈ 0.562 µM) | MIC ([2]; read-out: MIC): 0.5 µg/mL (≈ 0.562 µM) | MIC ([3]; Staphylococcus aureus, S13E): 0.5 µg/mL (≈ 0.562 µM) | MIC ([4]; read-out: MIC): 0.5 µg/mL (≈ 0.562 µM) | MIC ([5]; read-out: MIC): 0.25 µg/mL (≈ 0.281 µM) | MIC ([6]; read-out: MIC): 0.5 µg/mL (≈ 0.562 µM) | MIC ([7]; read-out: MIC): 2 µg/mL (≈ 2.25 µM) | MIC ([8]; read-out: MIC): 8 µg/mL (≈ 9 µM) | MIC ([9]; GROUPD2041, read-out: MIC): 8 µg/mL (≈ 9 µM) | MIC ([10]; read-out: MIC): 64 µg/mL (≈ 72 µM) | MIC ([11]; read-out: MIC): 8 µg/mL (≈ 9 µM) | MIC (Escherichia coli N10; read-out: MIC): > 128 µg/mL | MIC (Escherichia coli EC14; read-out: MIC): > 128 µg/mL | MIC (Escherichia coli TEM; read-out: MIC): > 128 µg/mL | MIC (Klebsiella X26; read-out: MIC): > 128 µg/mL | MIC [12, 22]: ≤ 0.048 µg/mL | MIC [13, 23]: 1.56 µg/mL (≈ 1.75 µM) | MIC (Mycoplasma hyorhinis 29E; read-out: MIC): 6.25 µg/mL (≈ 7.03 µM) | MIC (Mycoplasma synoviae 40A; [24]): 0.78 µg/mL (≈ 0.877 µM) | MIC ([14]; read-out: MIC): 25 µg/mL (≈ 28.1 µM) | MIC ([15]; read-out: MIC): 12.5 µg/mL (≈ 14.1 µM) | MIC ([16]; read-out: MIC): 50 µg/mL (≈ 56.2 µM) | MIC (Staphylococcus aureus; read-out: MIC): 1.56 µg/mL (≈ 1.75 µM) | MIC (Streptococcus sp. 19F; read-out: MIC): 3.12 µg/mL (≈ 3.51 µM) | ED50 ([20]; C203, Oral): 19 mg/kg | ED50 ([20]; C203, sc, Subcutaneous): 7.5 mg/kg | Number of Deaths/Number Treated (Pasteurella multocida [17]): 10/10 | Number of Deaths/Number Treated (Pasteurella multocida [18]): 8/10
